Conditions: Crystal, Calculated from knudsen effusion weight loss

[Br-].[Br-].[Pb+2] [lead(II) bromide]
Conditions | vapor or sublimation pressure [kPa]
532.3 K | 7e-06
533 K | 8e-06
533.1 K | 8e-06
553.2 K | 3.6e-05
553.7 K | 2.6e-05
553.9 K | 2.7e-05
571.5 K | 6.1e-05
572.5 K | 7.8e-05
573.7 K | 7.5e-05
590.8 K | 0.000233
591.9 K | 0.000178
592.6 K | 0.0002
611.3 K | 0.000418
611.5 K | 0.000573
612.9 K | 0.000512
632.7 K | 0.000886
633.5 K | 0.001153
633.9 K | 0.001334
